# Laboratory results reported in ChEMBL document CHEMBL5537110, “SIRT1-dependent mitochondrial biogenesis supports therapeutic effects of 4-butyl-polyhydroxybenzophenone compounds against NAFLD” (Eur J Med Chem, 2023).
# Calls of active or inactive are those of the source. The rule behind the calls is not given here.
# Experiments:
# HepG2 [1] = assay: Inhibition of liver injury in 40% FBS-induced steatosis human HepG2 cells model assessed as decrease in AST level at 0.2 to 5 uM incubated with compound for 24 hrs followed by replacement with steatosis inducing DMEM with 40% FBS medium; type: functional, cell-based; settings: dose 0.2-5 µM
# [2] = target: T1, NAD-dependent protein deacetylase sirtuin-1 (Homo sapiens) (UniProt Q96EB6); assay: Binding affinity to SIRT1 in human HepG2 cells assessed as increase in thermal stability of protein pretreated with compound for 30 mins followed by incubation at 50 degC for 3 mins by CETSA-WB analysis; type: cell-based; settings: filed as activator, dose 80-320 µM, time 33.0 min
# T1 sequence (whole entry): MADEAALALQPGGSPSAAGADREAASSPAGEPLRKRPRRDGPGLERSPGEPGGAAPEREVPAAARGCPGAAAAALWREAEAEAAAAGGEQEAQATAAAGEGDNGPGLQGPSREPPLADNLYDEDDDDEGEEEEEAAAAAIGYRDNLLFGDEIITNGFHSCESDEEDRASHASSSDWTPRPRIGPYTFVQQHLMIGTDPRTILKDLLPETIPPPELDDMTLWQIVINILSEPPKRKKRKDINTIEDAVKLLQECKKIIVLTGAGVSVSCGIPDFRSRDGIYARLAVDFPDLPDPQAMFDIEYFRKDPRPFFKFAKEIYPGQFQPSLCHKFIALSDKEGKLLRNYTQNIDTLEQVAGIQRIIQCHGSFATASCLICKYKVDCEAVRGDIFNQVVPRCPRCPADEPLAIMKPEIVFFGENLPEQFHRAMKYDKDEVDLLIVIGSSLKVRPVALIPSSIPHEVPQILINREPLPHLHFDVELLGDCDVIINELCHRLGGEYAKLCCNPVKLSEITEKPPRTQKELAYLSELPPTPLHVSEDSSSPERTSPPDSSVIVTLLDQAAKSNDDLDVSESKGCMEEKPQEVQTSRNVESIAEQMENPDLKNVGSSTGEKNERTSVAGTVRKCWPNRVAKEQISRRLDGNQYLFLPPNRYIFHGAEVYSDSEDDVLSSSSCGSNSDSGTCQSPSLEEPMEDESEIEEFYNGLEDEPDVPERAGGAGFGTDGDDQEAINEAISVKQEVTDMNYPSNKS
# Rattus norvegicus [3] = assay: Hepatoprotective activity against high fat diet-fed NAFLD Sprague-Dawley rat model assessed as decrease in serum GDH level administered intragastrically via gavage for 4 weeks; type: functional, organism-based; settings: dose 12.3-61.4 mg/kg, route ig
# Rattus norvegicus [4] = assay: Hepatoprotective activity against high fat diet-fed NAFLD Sprague-Dawley rat model assessed as decrease in serum ALT level administered intragastrically via gavage for 4 weeks; type: functional, organism-based; settings: dose 12.3-61.4 mg/kg, route ig
# HepG2 [5] = assay: Induction of mitochondrial biogenesis in human HepG2 cells assessed as mitochondrial COX1 mRNA expression incubated for 24 hrs in presence of SIRT1 inhibitor, EX527 by qRT-PCR analysis; type: functional, cell-based
# [6] = target: T2, Peroxisome proliferator-activated receptor gamma coactivator 1-alpha (Homo sapiens, UniProt Q9UBK2); assay: (§1) Binding affinity to PGC1alpha (unknown origin) by surface plasmon resonance assay
# T2 sequence (Q9UBK2 whole entry): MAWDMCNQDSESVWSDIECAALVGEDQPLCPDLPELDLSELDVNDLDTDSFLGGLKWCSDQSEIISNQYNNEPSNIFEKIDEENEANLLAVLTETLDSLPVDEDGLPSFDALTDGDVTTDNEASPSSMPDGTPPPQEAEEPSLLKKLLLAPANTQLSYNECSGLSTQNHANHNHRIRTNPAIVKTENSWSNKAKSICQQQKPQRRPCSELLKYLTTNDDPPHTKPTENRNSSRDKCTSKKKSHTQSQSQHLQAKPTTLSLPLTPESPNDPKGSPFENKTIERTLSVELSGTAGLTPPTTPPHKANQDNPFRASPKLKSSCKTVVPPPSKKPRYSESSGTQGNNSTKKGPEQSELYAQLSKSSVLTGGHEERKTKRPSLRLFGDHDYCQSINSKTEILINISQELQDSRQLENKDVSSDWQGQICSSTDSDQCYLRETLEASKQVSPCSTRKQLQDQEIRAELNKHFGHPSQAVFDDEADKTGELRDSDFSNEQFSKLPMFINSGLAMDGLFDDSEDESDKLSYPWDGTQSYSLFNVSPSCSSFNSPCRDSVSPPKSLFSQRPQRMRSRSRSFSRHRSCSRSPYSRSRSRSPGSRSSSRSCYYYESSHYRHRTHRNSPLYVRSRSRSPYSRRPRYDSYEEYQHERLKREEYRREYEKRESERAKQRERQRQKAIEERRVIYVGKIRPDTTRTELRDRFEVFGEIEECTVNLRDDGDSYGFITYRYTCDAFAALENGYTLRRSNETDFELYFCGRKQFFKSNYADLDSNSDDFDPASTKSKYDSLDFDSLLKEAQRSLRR
# [7] = target: T3, Peroxisome proliferator-activated receptor gamma coactivator 1-alpha (Homo sapiens) (UniProt Q9UBK2); assay: as §1; settings: filed as activator
# T3 sequence (whole entry): T2 sequence (Q9UBK2 whole entry)
# HepG2 [8] = assay: Inhibition of liver injury in 40% FBS-induced steatosis human HepG2 cells model assessed as decrease in AST level at 0.2 to 5 uM incubated in steatosis inducing DMEM with 40% FBS medium for 24 hrs followed by compound treatment; type: functional, cell-based; settings: dose 0.2-5 µM
# HepG2 [9] = assay: Inhibition of liver injury in 40% FBS-induced steatosis human HepG2 cells model assessed as decrease in ALT level at 0.2 to 5 uM incubated in steatosis inducing DMEM with 40% FBS medium for 24 hrs followed by compound treatment; type: functional, cell-based; settings: dose 0.2-5 µM
# HepG2 [10] = assay: Recovery of mitochondrial biogenesis in 40% FBS-induced steatosis human HepG2 cells model assessed as increase in NRF1 mRNA expression incubated for 24 hrs by qRT-PCR analysis; type: functional, cell-based; settings: dose 0.2-5 µM
# EA.hy 926 = assay: Cytoprotective activity against H2O2-induced toxicity in human EA.hy 926 cells assessed as protective rate pretreated with compound for 4 hrs followed by incubation with H2O2 for 2 hrs by absorbance based analysis; type: functional, cell-based
# [11] = target: T3, Peroxisome proliferator-activated receptor gamma coactivator 1-alpha (Homo sapiens); assay: Binding affinity to PGC1alpha in human HepG2 cells assessed as increase in thermal stability of protein pretreated with compound for 30 mins followed by incubation at 50 degC for 3 mins by CETSA-WB analysis; type: cell-based; settings: filed as activator, dose 80-320 µM, time 33.0 min
# [12] = target: T1, NAD-dependent protein deacetylase sirtuin-1 (Homo sapiens); assay: Binding affinity to SIRT1 in human HepG2 cells assessed as increase in thermal stabilization of protein at 320 uM pretreated with compound for 30 mins followed by incubation at 40 to 65 degC for 3 mins by CETSA-WB analysis; type: cell-based; settings: filed as activator, time 33.0 min
# HepG2 [13] = assay: Induction of mitochondrial biogenesis in human HepG2 cells assessed as TFAM mRNA expression incubated for 24 hrs in presence of SIRT1 inhibitor, EX527 by qRT-PCR analysis; type: functional, cell-based
# [14] = target: T4, NAD-dependent protein deacetylase sirtuin-1 (Homo sapiens, UniProt Q96EB6); assay: (§2) Binding affinity to SIRT1 (unknown origin) by surface plasmon resonance assay
# T4 sequence (Q96EB6 whole entry): T1 sequence (whole entry)
# [15] = target: T1, NAD-dependent protein deacetylase sirtuin-1 (Homo sapiens); assay: as §2; settings: filed as activator
# HepG2 [16] = assay: Recovery of mitochondrial biogenesis in 40% FBS-induced steatosis human HepG2 cells model assessed as increase in PGC1alpha mRNA expression incubated for 24 hrs by qRT-PCR analysis; type: functional, cell-based; settings: dose 0.2-5 µM
structure (smiles),measurement,setting,value
CC(C)(C)c1ccc(C(=O)c2ccc(O)c(O)c2)cc1,inhibition,HepG2 [1],Active
same,Activity,[2],Dose-Dependent Effect
same,Activity,Rattus norvegicus [3],Active
same,Activity,Rattus norvegicus [4],Active
same,Activity,HepG2 [5],inactive
same,Kd,[6],172 µM
same,Activity,[7],Dose-Dependent Effect
same,inhibition,HepG2 [8],Active
same,inhibition,HepG2 [9],Active
same,Activity,HepG2 [10],Dose-Dependent Effect
same,EC50,EA.hy 926,72.3 nM
same,Activity,[11],Dose-Dependent Effect
same,Activity,[12],Active
same,Activity,HepG2 [13],inactive
same,Kd,[14],77.3 µM
same,Activity,[15],Dose-Dependent Effect
same,Activity,HepG2 [16],Dose-Dependent Effect
